The source of these data is patent publication US9006444B2, “Phenyl carboxamide-containing spleen tyrosine kinase (SYK) inhibitors” (Merck Sharp & Dohme Corp., priority 2011, dated 2015).

Data set [1] has as its target T1, recombinant human GST-SYK (Homo sapiens, UniProt P43405).
T1 construct: purchased Carna Biosciences 08-176
The data set can be described thus: Homogeneous Time-Resolved Fluorescence (HTRF) Assay for the Recombinant Human Syk Enzyme. The conditions noted are these: GST-hSYK 5 pM, ATP 25 μM, 10-dose titration. It is filed as biochemical. How it is done: Homogeneous Time-Resolved Fluorescence (HTRF) Assay for the Recombinant Human Syk Enzyme
A recombinant GST-hSYK fusion protein was used to measure potency of compounds to inhibit human Syk activity. […] Final volume of the reaction was 10 μL. Phosphorylation of the peptide was allowed to proceed for 45′ at room temperature. To quench the reaction and detect the phosphorylated product, 2 nM of a Europium-anti-phosphotyrosine antibody (Perkin Elmer #AD0161) and 70 nM SA-APC (Perkin-Elmer #CR130-100) were added together in 15 mM Tris pH 7.5, 40 mM EDTA, 0.01% tween 20. Final volume of the quenching solution was 10 μl. The resulting HTRF signal was measured after 30 minutes on an EnVision (Perkin-Elmer) reader using a time-resolved fluorescence protocol.
In general terms: In TR-FRET formats the signal depends on donor and acceptor labels being close together.

Data set [2] concerns PGD2. The following applies: intranasal, phase I/II study, allergic rhinitis; cited from earlier work.
The conditions of data set [3]: phase II clinical trial, allergic rhinitis; cited from earlier work.

SMILES strings stand for the structures. Read-outs that look alike come from different tables or passages of the source. Some results are limits rather than exact numbers.

Turning to `NC(=O)c1ccc(N[C@@H]2CCCC[C@@H]2N)cc1Nc1cccc(-n2cccc2)n1` (relative stereo) [Example 1.17, rel-4-{[(1R,2S)-2-aminocyclohexyl]amino}-2-{[6-(1H-pyrrol-1-yl)pyridin-2-yl]amino}benzamide], in data set [1] (read-out: rhSYK Activity), the IC50 was under 1.5 nM.

With `NC(=O)c1ccc(N[C@@H]2CCCC[C@@H]2N)cc1Nc1cccc(N2CCOCC2)n1` (relative stereo) [Example 1.5, rel-4-{[(1R,2S)-2-aminocyclohexyl]amino}-2-[(6-morpholin-4-ylpyridin-2-yl)amino]benzamide], in data set [1] (read-out: rhSYK Activity), the IC50 was in the range of 15 to 50 nM.

For `Oc1cccc(Nc2ncc(F)c(Nc3cccc(O)c3)n2)c1` [Example R112], in data set [2], the “change in PGD2” value is “statistically significant decrease” and the clinical safety entry is on record as “safe across a range of indicators”. Besides, in data set [3], the efficacy versus placebo result is “lack of efficacy versus placebo”.

Take `NC(=O)c1ccc(N[C@@H]2CCCC[C@@H]2N)cc1Nc1cccc(-c2ccc(F)cc2)n1` (relative stereo) [Example 1.14, rel-4-{[(1R,2S)-2-aminocyclohexyl]amino}-2-{[6-(4-fluorophenyl)pyridin-2-yl]amino}benzamide]: the IC50 in data set [1] (read-out: rhSYK Activity) fell in the range of 1.5 to 15 nM.

As to `Cc1cccc(Nc2cc(N[C@@H]3CCCC[C@@H]3N)ccc2C(N)=O)n1` (relative stereo) [Example 2, rel-4-{[(1R,2S)-2-aminocyclohexyl]amino}-2-[(6-methylpyridin-2-yl)amino]benzamide], the IC50 in data set [1] (read-out: rhSYK Activity) fell in the range of 15 to 50 nM.

As to `COc1cccc(-c2cccc(Nc3cc(N[C@@H]4CCCC[C@@H]4N)ccc3C(N)=O)n2)c1` (relative stereo) [Example 1.9, rel-4-{[(1R,2S)-2-aminocyclohexyl]amino}-2-{[6-(3-methoxyphenyl)pyridin-2-yl]amino}benzamide], the IC50 in data set [1] (read-out: IC50) is 1.3 nM; in data set [1] (read-out: rhSYK Activity), under 1.5 nM.

For the compound `NC(=O)c1ccc(N[C@@H]2CCCC[C@@H]2N)cc1Nc1ccc2ccccc2n1` (relative stereo) [Example 1.15, rel-4-{[(1R,2S)-2-aminocyclohexyl]amino}-2-(quinolin-2-ylamino)benzamide], the IC50 in data set [1] (read-out: rhSYK Activity) was in the range of 1.5 to 15 nM.

On to `Cc1nc(Nc2cc(N[C@@H]3CCCC[C@@H]3N)ccc2C(N)=O)ccc1F` (relative stereo) [Example 1.4, rel-4-{[(1R,2S)-2-aminocyclohexyl]amino}-2-[(5-fluoro-6-methylpyridin-2-yl)amino]benzamide], for which the IC50 in data set [1] (read-out: IC50) was 23 nM; in data set [1] (read-out: rhSYK Activity) it was 15 to 50 nM.

Regarding `NC(=O)c1ccc(N[C@@H]2CCCC[C@@H]2N)cc1Nc1cccc(-c2ccncc2)n1` (relative stereo) [Example 1.8, rel-4-{[(1R,2S)-2-aminocyclohexyl]amino}-2-(2,4′-bipyridin-6-ylamino)benzamide], the IC50 in data set [1] (read-out: rhSYK Activity) is under 1.5 nM.

As for `NC(=O)c1ccc(N[C@@H]2CCCC[C@@H]2N)cc1Nc1cccc(-c2cccc(F)c2)n1` (relative stereo) [Example 1.11, rel-4-{[(1R,2S)-2-aminocyclohexyl]amino}-2-{[6-(3-fluorophenyl)pyridin-2-yl]amino}benzamide], the IC50 in data set [1] (read-out: rhSYK Activity) is under 1.5 nM.

With `COc1ccccc1-c1cccc(Nc2cc(N[C@@H]3CCCC[C@@H]3N)ccc2C(N)=O)n1` (relative stereo) [Example 1.12, rel-4-{[(1R,2S)-2-aminocyclohexyl]amino}-2-{[6-(2-methoxyphenyl)pyridin-2-yl]amino}benzamide], in data set [1] (read-out: rhSYK Activity), the IC50 is under 1.5 nM.

On to `NC(=O)c1ccc(N[C@@H]2CCCC[C@@H]2N)cc1Nc1cccc(-c2ccccc2)n1` (relative stereo) [Example 1.7, rel-4-{[(1R,2S)-2-aminocyclohexyl]amino}-2-[(6-phenylpyridin-2-yl)amino]benzamide], for which, in data set [1] (read-out: rhSYK Activity), the IC50 is under 1.5 nM.

As to `COc1ccc(-c2cccc(Nc3cc(N[C@@H]4CCCC[C@@H]4N)ccc3C(N)=O)n2)cc1` (relative stereo) [Example 1.13, rel-4-{[(1R,2S)-2-aminocyclohexyl]amino}-2-{[6-(4-methoxyphenyl)pyridin-2-yl]amino}benzamide], the IC50 in data set [1] (read-out: rhSYK Activity) was under 1.5 nM.

Turning to `COc1cccc(Nc2cc(N[C@@H]3CCCC[C@@H]3N)ccc2C(N)=O)n1` (relative stereo) [Example 1.2, rel-4-{[(1R,2S)-2-aminocyclohexyl]amino}-2-[(6-methoxypyridin-2-yl)amino]benzamide], the IC50 in data set [1] (read-out: rhSYK Activity) lay in the range of 1.5 to 15 nM.

With `NC(=O)c1ccc(N[C@@H]2CCCC[C@@H]2N)cc1Nc1cccc(-n2cccn2)n1` (relative stereo) [Example 1.3, rel-4-{[(1R,2S)-2-aminocyclohexyl]amino}-2-{[6-(1H-pyrazol-1-yl)pyridin-2-yl]amino}benzamide], the IC50 in data set [1] (read-out: rhSYK Activity) was in the range of 1.5 to 15 nM.

For the compound `CCOc1cccc(Nc2cc(N[C@@H]3CCCC[C@@H]3N)ccc2C(N)=O)n1` (relative stereo) [Example 1.6, rel-4-{[(1R,2S)-2-aminocyclohexyl]amino}-2-[(6-ethoxypyridin-2-yl)amino]benzamide], in data set [1] (read-out: rhSYK Activity), the IC50 fell in the range of 1.5 to 15 nM.

As for `Cn1cc(-c2cccc(Nc3cc(N[C@@H]4CCCC[C@@H]4N)ccc3C(N)=O)n2)cn1` (relative stereo) [Example 1.10, rel-4-{[(1R,2S)-2-aminocyclohexyl]amino}-2-{[6-(1-methyl-1H-pyrazol-4-yl)pyridin-2-yl]amino}benzamide], the IC50 in data set [1] (read-out: IC50) is 2 nM; in data set [1] (read-out: rhSYK Activity), 1.5 to 15 nM.

`NC(=O)c1ccc(N[C@@H]2CCCC[C@@H]2N)cc1Nc1cccc(-c2ccc(F)c(F)c2)n1` (relative stereo) [Example 1.16, rel-4-{[(1R,2S)-2-aminocyclohexyl]amino}-2-{[6-(3,4-difluorophenyl)pyridin-2-yl]amino}benzamide]: the figures for the IC50 in data set [1] (read-out: IC50) and in data set [1] (read-out: rhSYK Activity) were 1.6 nM and 1.5 to 15 nM, respectively.
